Laboratory results reported in article PMC12257299 (RSC Advances, 2025).

Target: GSK-3β (Homo sapiens, UniProt P49841)
Assay: ADP-Glo kinase assay with Promega GSK-3β enzyme
Type: biochemical

GSK-3β, sequence (P49841 whole entry): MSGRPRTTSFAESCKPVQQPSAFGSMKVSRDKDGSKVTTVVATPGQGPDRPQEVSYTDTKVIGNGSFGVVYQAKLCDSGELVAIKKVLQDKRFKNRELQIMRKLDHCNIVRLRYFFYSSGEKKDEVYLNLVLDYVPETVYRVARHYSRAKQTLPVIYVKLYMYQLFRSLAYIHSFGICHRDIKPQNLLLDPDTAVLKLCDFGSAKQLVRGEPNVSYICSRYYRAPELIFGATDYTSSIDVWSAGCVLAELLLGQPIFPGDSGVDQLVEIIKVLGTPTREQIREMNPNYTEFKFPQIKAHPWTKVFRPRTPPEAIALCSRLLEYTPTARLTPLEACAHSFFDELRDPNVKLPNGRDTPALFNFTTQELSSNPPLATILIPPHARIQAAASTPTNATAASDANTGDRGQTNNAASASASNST

COc1ccc(Cn2cc(CN3C(=O)C(=NNc4ccccc4)c4ccccc43)nn2)cc1 [6Ec, 1-((1-(4-Methoxybenzyl)-1H-1,2,3-triazol-4-yl)methyl)-3-(2-phenylhydrazono) indolin-2-one]
IC50: 59.8 µM
